Where “and” joins values, the source holds several entries; their conditions need not be identical. Equal entries are not always repeated. Where two headings read alike, the source gives them in different places. Square brackets hold non-standard residues; d marks the D form. Peptide text beside a SMILES is read from it. dPhe(F5) = N[C@H](Cc1c(F)c(F)c(F)c(F)c1F)C(=O)O
What was measured:
hNMB-receptor [1] = biological target: T1, hNMB-receptor (Homo sapiens, UniProt P28336); experiment: cell-based; details: for [3H]IP NCI-H1299 (hNMB-R) EC50: stimulation of [3H]IP generation; for [3H]IP NCI-H1299 (hNMB-R) Ag/Antag: agonist/antagonist classification, up to 10 μM
T1 sequence (P28336 whole entry): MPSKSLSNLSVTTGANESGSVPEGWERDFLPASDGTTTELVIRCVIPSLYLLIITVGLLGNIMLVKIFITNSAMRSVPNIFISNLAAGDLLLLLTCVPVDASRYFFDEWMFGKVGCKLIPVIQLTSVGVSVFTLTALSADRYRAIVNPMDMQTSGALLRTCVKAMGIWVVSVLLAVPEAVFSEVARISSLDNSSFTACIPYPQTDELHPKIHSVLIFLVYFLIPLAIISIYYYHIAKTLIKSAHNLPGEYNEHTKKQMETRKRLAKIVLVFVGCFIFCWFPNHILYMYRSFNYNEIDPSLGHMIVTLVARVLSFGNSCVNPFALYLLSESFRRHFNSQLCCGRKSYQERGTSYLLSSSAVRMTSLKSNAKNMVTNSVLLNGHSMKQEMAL

hNMB-receptor [2] = biological target: T1, hNMB-receptor; experiment: Whole cell radioligand binding, hNMB-receptor transfected NCI-H1299 cells
hNMB-receptor [3] = biological target: T1, hNMB-receptor; experiment: Whole cell radioligand binding, hNMB-receptor transfected Balb 3T3 cells; details: for IC50: IC50 hNMB-R Balb-3T3, hNMB-receptor transfected Balb 3T3 cells, 125I-[D-Tyr0]NMB, 1 h, 22°C, mean ± S.E.
hGRP-receptor [4] = biological target: T2, hGRP-receptor (Homo sapiens, UniProt P30550); experiment: Whole cell radioligand binding, HuTu-80 cells
T2 sequence (P30550 whole entry): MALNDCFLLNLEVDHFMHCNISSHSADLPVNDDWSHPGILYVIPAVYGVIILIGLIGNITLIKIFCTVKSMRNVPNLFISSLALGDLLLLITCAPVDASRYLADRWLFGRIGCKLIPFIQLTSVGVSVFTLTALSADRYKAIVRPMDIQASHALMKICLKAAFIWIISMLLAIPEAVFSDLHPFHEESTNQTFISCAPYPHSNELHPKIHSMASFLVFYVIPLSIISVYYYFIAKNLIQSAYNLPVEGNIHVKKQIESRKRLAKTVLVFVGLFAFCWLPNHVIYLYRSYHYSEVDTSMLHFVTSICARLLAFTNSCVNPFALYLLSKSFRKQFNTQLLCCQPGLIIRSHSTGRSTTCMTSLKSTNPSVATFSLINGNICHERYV

hGRP-receptor [5] = biological target: T2, hGRP-receptor; experiment: [3H]inositol phosphate generation, HuTu-80 cells; format: cell-based; details: for [3H]IP HuTu-80 (hGRP-R) Ag/Antag: agonist/antagonist classification, up to 10 μM
hBRS-3 receptor = biological target: T3, hBRS-3 receptor (Homo sapiens, UniProt P32247); experiment: Whole cell radioligand binding, hBRS-3 transfected Balb 3T3 cells
T3 sequence (P32247 1-399): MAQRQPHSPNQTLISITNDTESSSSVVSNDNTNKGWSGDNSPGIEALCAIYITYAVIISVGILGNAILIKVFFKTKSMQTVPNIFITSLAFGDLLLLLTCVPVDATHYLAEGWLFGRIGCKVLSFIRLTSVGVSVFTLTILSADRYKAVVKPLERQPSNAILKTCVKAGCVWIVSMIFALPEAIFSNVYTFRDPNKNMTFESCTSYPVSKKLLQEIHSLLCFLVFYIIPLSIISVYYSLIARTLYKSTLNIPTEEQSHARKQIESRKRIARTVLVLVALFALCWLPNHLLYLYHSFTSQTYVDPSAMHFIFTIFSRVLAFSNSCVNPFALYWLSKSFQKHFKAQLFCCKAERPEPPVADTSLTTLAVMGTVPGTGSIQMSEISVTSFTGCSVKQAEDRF

hGRP-receptor [6] = biological target: T2, hGRP-receptor; experiment: [3H]inositol phosphate generation, hGRP-receptor transfected Balb 3T3 cells; format: cell-based; details: for [3H]IP hGRPR-R-Balb-3T3 Ag/Antag: agonist/antagonist classification, up to 10 μM
hNMB-receptor [7] = biological target: T1, hNMB-receptor; format: cell-based; details: for [3H]IP hNMB-R-Balb-3T3 Ag/Antag: agonist/antagonist classification, up to 10 μM; for agonist activity at hNMB-receptor: concentrations up to 10 μM, hNMB-receptor transfected Balb 3T3 or NCI-H1299 cells
hNMB-receptor [8] = biological target: T1, hNMB-receptor; details: cited from earlier work
hGRP-receptor [9] = biological target: T2, hGRP-receptor; experiment: Whole cell radioligand binding, hGRP-receptor transfected Balb 3T3 cells; details: b34 values for receptors expressed in Balb 3T3 cells
hGRP-receptors = details: cited from earlier work

| SMILES | IC50 (hNMB-receptor [1]) [µM] | IC50 (hNMB-receptor [2]) [µM] | IC50 (hNMB-receptor [3]) [µM] | IC50 (hGRP-receptor [4]) [µM] | IC50 (hGRP-receptor [5]) [µM] | IC50 (hBRS-3 receptor) [µM] | IC50 (hGRP-receptor [6]) [µM] | selectivity for hGRP-receptor over hNMB-receptor (binding affinities) (hGRP-receptor [9]) | further results |
| --- | --- | --- | --- | --- | --- | --- | --- | --- | --- |
| CC(C)C[C@H](NC(=O)[C@H](CC(C)C)NC(=O)[C@@H](Cc1c[nH]c2ccccc12)NC(=O)[C@H](Cc1ccccc1)NC(=O)[C@@H](Cc1c[nH]c2ccccc12)NC(=O)[C@H](CCC(N)=O)NC(=O)[C@H](CCC(N)=O)NC(=O)[C@@H]1CCCN1C(=O)[C@H](CCCCN)NC(=O)[C@@H]1CCCN1C(=O)[C@H](N)CCCNC(=N)N)C(N)=O [Peptide 3, [D-Arg^1, D-Trp^7,9, Leu^11]SP] (H-[dR]PKPQQ[dW]F[dW]LL-NH2) |  |  |  |  |  |  |  |  | [3H]IP NCI-H1299 (hNMB-R) EC50 (hNMB-receptor [1]): No act |
| CC(C)C[C@H](NC(=O)[C@H](CC(C)C)NC(=O)[C@@H](Cc1c[nH]c2ccccc12)NC(=O)[C@H](Cc1ccccc1)NC(=O)[C@@H](Cc1c[nH]c2ccccc12)NC(=O)[C@H](CCC(N)=O)NC(=O)[C@H](CCC(N)=O)NC(=O)[C@@H]1CCCN1C(=O)[C@H](CCCCN)NC(=O)[C@@H]1CCCN1C(=O)[C@H](N)CCCN=C(N)N)C(N)=O [Peptide 3, [D-Arg^1, D-Trp^7,9, Leu^11]SP] (H-[dR]PKPQQ[dW]F[dW]LL-NH2) | 2.34 ± 0.08 | 1.59 ± 0.03 | 4.48 ± 0.86 | 1.78 ± 0.05 | 8.31 ± 0.154 | > 10 | 1.58 ± 0.081 |  |  |
| CSCC[C@H](NC(=O)[C@H](CC(C)C)NC(=O)[C@@H](Cc1ccccc1)NC(=O)CNC(=O)[C@@H](NC(=O)[C@H](C)NC(=O)[C@H](Cc1c[nH]c2ccccc12)NC(=O)[C@H](CCC(N)=O)NC(=O)[C@H](CC(N)=O)NC(=O)CNC(=O)[C@H](Cc1ccc(O)cc1)NC(=O)[C@H](CCCNC(=N)N)NC(=O)[C@H](CCC(N)=O)NC(=O)[C@@H]1CCC(=O)N1)C(C)C)C(N)=O [Peptide 2, [Tyr^4, D-Phe^12]Bn] |  | 1.86 ± 0.06 | 3.09 ± 0.32 | 0.912 ± 0.076 | 8.13 ± 0.226 | > 10 | > 10 |  | EC50 (hNMB-receptor [1]): 0.103 ± 0.005 µM |
| CC(Cc1c[nH]c2ccccc12)(NC(=O)Nc1ccc([N+](=O)[O-])cc1)C(=O)NCC1(c2ccccn2)CCCCC1 (stereo not drawn) [Peptide 34, 3-(1H-Indol-3-yl)-2-methyl-2-[3(4-nitro-phenyl)-ureido]-N-(1-pyridin-2-yl-cyclohexylmethyl)-propionamide, reference compound] | 0.0245 ± 0.0012 | 0.00025 ± 2e-05 | 0.00051 ± 2e-05 | 1.74 ± 0.105 | 1.78 ± 0.057 | > 10 | > 3 |  | selectivity for hNMB-receptor over hGRP-receptor based on potency for inhibiting agonist-stimulated [3H]IP (hNMB-receptor [7]): 33 to 100 fold; [3H]IP hNMB-R-Balb-3T3 Ag/Antag (hNMB-receptor [7]): Antag; agonist activity at hNMB-receptor (hNMB-receptor [7]): did not have agonist activity; hNMBR Ag/Antag (hNMB-receptor [1]; Table 5 species comparison, human values of this study (NCI-H1299)): Antag; [3H]IP NCI-H1299 (hNMB-R) Ag/Antag (hNMB-receptor [1]): Antag; selectivity for hNMB-receptor over hGRP-receptor (binding affinities) (hNMB-receptor [3]; listed as PD168368): 7,000 fold; hGRPR Ag/Antag (hGRP-receptor [5]; Table 5 species comparison, human values of this study (HuTu-80)): Antag; [3H]IP HuTu-80 (hGRP-R) Ag/Antag (hGRP-receptor [5]): Antag; [3H]IP hGRPR-R-Balb-3T3 Ag/Antag (hGRP-receptor [6]): No act; hNMB- or rNMB-receptor selectivity in other studies (hNMB-receptor [8]): 40 fold; IC50 (hNMB-receptor [8]; read-out: IC50 for hNMB-receptors, other studies on human cells): 0.015 µM |
| CC(C)C[C@H](NC(=O)[C@H](Cc1cnc[nH]1)NC(=O)CNC(=O)[C@@H](NC(=O)[C@H](C)NC(=O)[C@H](Cc1c[nH]c2ccccc12)NC(=O)[C@H](CCC(N)=O)NC(=O)[C@H](N)Cc1ccccc1)C(C)C)C(N)=O [Peptide 8, [D-Phe^6]Bn(6-13)NH2] | > 10 | > 10 | > 10 | 0.00493 ± 0.00039 | 0.398 ± 0.011 | > 10 | 0.416 ± 0.008 |  |  |
| CCCCNC(=O)[C@H](CC(C)C)NC(=O)[C@H](Cc1c[nH]cn1)NC(=O)CNC(=O)[C@@H](NC(=O)[C@H](C)NC(=O)[C@H](Cc1c[nH]c2ccccc12)NC(=O)[C@H](CCC(N)=O)NC(=O)[C@H](N)Cc1ccccc1)C(C)C [Peptide 14, [D-Phe^6]Bn(6-13)Butylamide (BA)] |  | 1.78 ± 0.03 | 3.11 ± 0.16 | 0.00102 ± 9e-05 | 0.0155 ± 0.002 | 0.692 ± 0.027 | 0.0213 ± 0.0016 |  |  |
| COC(=O)[C@H](CC(C)C)NC(=O)[C@H](Cc1c[nH]cn1)NC(=O)CNC(=O)[C@@H](NC(=O)[C@H](C)NC(=O)[C@H](Cc1c[nH]c2ccccc12)NC(=O)[C@H](CCC(N)=O)NC(=O)[C@H](N)Cc1ccccc1)C(C)C [Peptide 17, [D-Phe^6]Bn-(6-13)Methyl ester (ME)] | > 10 | > 10 | > 10 | 0.00398 ± 0.0008 | 0.0109 ± 0.0015 | 5.29 ± 1.99 | 0.0155 ± 0.001 | > 10,000 fold |  |
| CCCNC(=O)[C@H](CC(C)C)NC(=O)[C@H](Cc1c[nH]cn1)NC(=O)CNC(=O)[C@@H](NC(=O)[C@H](C)NC(=O)[C@H](Cc1c[nH]c2ccccc12)NC(=O)[C@H](CCC(N)=O)NC(=O)[C@H](N)Cc1ccc(O)cc1)C(C)C [Peptide 12, [D-Tyr^6]Bn-(6-13)Propylamide (PA)] |  | > 10 | > 10 | 0.00141 ± 6e-05 | 0.0407 ± 0.0014 | 1.9 ± 0.3 | 0.275 ± 0.013 |  |  |
| COC(=O)[C@H](CC(C)C)NC(=O)[C@H](Cc1c[nH]cn1)NC(=O)[C@@H](C)NC(=O)[C@@H](NC(=O)[C@H](C)NC(=O)[C@H](Cc1c[nH]c2ccccc12)NC(=O)[C@H](CCC(N)=O)NC(=O)[C@H](N)Cc1c(F)c(F)c(F)c(F)c1F)C(C)C [Peptide 18, [D-F-5, Phe^6, D-Ala^11]Bn(6-13)Metyl ester (ME)] (H-[dPhe(F5)]QWAV[dA]HL-OMe) |  | > 10 | > 10 | 0.00012 ± 1e-05 | 0.0042 ± 0.0009 | > 10 | 0.0036 ± 0.0002 | > 11,000 fold and > 10,000 fold |  |
| CCOC(=O)[C@H](CC(C)C)NC(=O)[C@H](Cc1c[nH]cn1)NC(=O)CNC(=O)[C@@H](NC(=O)[C@H](C)NC(=O)[C@H](Cc1c[nH]c2ccccc12)NC(=O)[C@H](CCC(N)=O)NC(=O)[C@H](N)Cc1ccccc1)C(C)C [Peptide 20, [D-Phe^6]Bn-(6-13)Ethyl ester] |  | > 10 | > 10 | 0.00014 ± 3e-05 | 0.0014 ± 0.0008 | 5.3 ± 1.4 | 0.002 ± 0.0003 | > 10,000 fold |  |
| CCCNC(=O)[C@H](CC(C)C)NC(=O)[C@H](Cc1c[nH]cn1)NC(=O)CNC(=O)[C@@H](NC(=O)[C@H](C)NC(=O)[C@H](Cc1c[nH]c2ccccc12)NC(=O)[C@H](CCC(N)=O)NC(=O)[C@H](N)Cc1ccccc1)C(C)C [Peptide 11, [D-Phe^6-Bn](6-13)Propylamide (PA)] |  | 3.09 ± 0.07 | 2.44 ± 0.16 | 0.00039 ± 0.00012 | 0.0363 ± 0.001 | 1.91 ± 0.3 | 0.031 ± 0.001 | ≥ 1,000 fold |  |
| COc1ccc(C2(CNC(=O)C(C)(Cc3c[nH]c4ccccc34)NC(=O)Nc3ccc([N+](=O)[O-])cc3)CCCCC2)nc1 (stereo not drawn) [Peptide 33, 3-(1H-Indol-3-yl)-N-[1-(5-methoxy-pyridin-2-yl)-cyclohexylmethyl]-2-methyl-2-[3-(4-nitro-phenyl)-ureido]-propionamide, reference compound] |  |  |  | 0.17 ± 0.011 | 0.275 ± 0.013 | > 10 |  |  | affinity for hGRP-receptors in a second study (hGRP-receptors): 20 to 30 nM; Ki (hGRP-receptors; read-out: Ki for hGRP-receptors in a previous study): 0.001 µM; [3H]IP hNMB-R-Balb-3T3 Ag/Antag (hNMB-receptor [7]): Antag; agonist activity at hNMB-receptor (hNMB-receptor [7]): did not have agonist activity; [3H]IP NCI-H1299 (hNMB-R) Ag/Antag (hNMB-receptor [1]): Antag; [3H]IP HuTu-80 (hGRP-R) Ag/Antag (hGRP-receptor [5]): Antag; [3H]IP hGRPR-R-Balb-3T3 Ag/Antag (hGRP-receptor [6]): Antag |
| CSCC[C@H](NC(=O)[C@@H](Cc1c[nH]c2ccccc12)NC(=O)[C@@H](Cc1c[nH]c2ccccc12)NC(=O)[C@H](Cc1ccccc1)NC(=O)[C@@H](Cc1c[nH]c2ccccc12)NC(=O)[C@H](CCC(N)=O)NC(=O)[C@H](CCC(N)=O)NC(=O)[C@H]1CCCN1)C(N)=O [Peptide 4, [D-Pro^4, D-Trp^7,9,10]SP-(4-11)] (H-[dP]QQ[dW]F[dW][dW]M-NH2) | 7.08 ± 0.344 | > 10 | > 10 | > 10 | > 3 | 2.3 ± 0.4 | > 3 |  | [3H]IP NCI-H1299 (hNMB-R) EC50 (hNMB-receptor [1]): No act |

— article PMC2766550 (Peptides, 2009)
